Assay results published in US20050203115A1, “Narcotic-NSAID ion pairs” (priority 2004, published 2005).
Read-outs that look alike come from different tables or passages of the source.

Experiments:
[1] = approx. 48 mg in 400 mL, 36.8° C., approximately 12 hours
Description: The solutions were stirred by paddles at 150 RPM for approximately 12 hours. […] The standards and sample preparations were measured at 282 nm in a 1 cm cell using a UV spectrophotometer. The results were determined from the linearity curve generated from the standard data.

[2] = methanolic solution 61 mg/mL added to HCl 0.1 N
Description: Measurements were obtained using a Sympatec HELOS model KF particle sizer with SUCELL and R5 lens (0.5-875 μm), pump, and stirrer speeds set to 50% of the maximum value.

In the case of CCC(=O)O[C@](Cc1ccccc1)(c1ccccc1)[C@H](C)CN(C)C.O=C(O)Cc1ccccc1Nc1c(Cl)cccc1Cl [Propoxyphene Diclofenate, (2S,3R)-(+)-4-(Dimethylamino)-3-methyl-1,2-diphenyl-2-butanol Propionate Diclofenate], the “% Dissolved” value ([1]; water pH 3) is reported as 0.009%, the “mg Dissolved from 48 mg Solution” value ([1]; water pH 3) is reported as 0.004 mg and the “mg/mL Dissolved” value ([1]; water pH 3) is reported as 1.0528e-05 mg/mL. For the same compound, the “% Dissolved” value ([1]; water pH 5) was 74.878%, the “mg Dissolved from 48 mg Solution” value ([1]; water pH 5) was 36.005 mg and the “mg/mL Dissolved” value ([1]; water pH 5) was 0.09 mg/mL. For the same compound, the “% Dissolved” value ([1]; water pH 7) was 75.677%, the “mg Dissolved from 48 mg Solution” value ([1]; water pH 7) was 36.644 mg and the “mg/mL Dissolved” value ([1]; water pH 7) was 0.0916 mg/mL. The “% Dissolved” value ([1]; water pH 9) was 71.168%, the “mg Dissolved from 48 mg Solution” value ([1]; water pH 9) was 34.018 mg and the “mg/mL Dissolved” value ([1]; water pH 9) was 0.08504 mg/mL. For the same compound, the “% Dissolved” value ([1]; water pH 11) was 39.395%, the “mg Dissolved from 48 mg Solution” value ([1]; water pH 11) was 18.700 mg and the “mg/mL Dissolved” value ([1]; water pH 11) was 0.04676 mg/mL. The “Particle size Mean” value ([2]; 15 minutes) was 152.4 μm, the “Particle size ≦50%” value ([2]; 15 minutes) was 141.2 μm and the “Particle size ≦90%” value ([2]; 15 minutes) was 287.9 μm. The “Particle size Mean” value ([2]; 45 minutes) was 155.5 μm, the “Particle size ≦50%” value ([2]; 45 minutes) was 143.0 μm and the “Particle size ≦90%” value ([2]; 45 minutes) was 293.9 μm. For the same compound, the “Particle size Mean” value ([2]; 75 minutes) was 161.7 μm, the “Particle size ≦50%” value ([2]; 75 minutes) was 140.5 μm and the “Particle size ≦90%” value ([2]; 75 minutes) was 308.6 μm. For the same compound, the “Particle size Mean” value ([2]; 120 minutes) was 149.2 μm, the “Particle size ≦50%” value ([2]; 120 minutes) was 135.4 μm and the “Particle size ≦90%” value ([2]; 120 minutes) was 286.3 μm. For the same compound, the “Particle size Mean” value ([2]; 150 minutes) was 124.2 μm, the “Particle size ≦50%” value ([2]; 150 minutes) was 110.2 μm and the “Particle size ≦90%” value ([2]; 150 minutes) was 238.4 μm.
